In patent US6913760B2, “Drug delivery composition” (New England Medical Hospitals, Inc., priority 2001, dated 2005):
Where “and” joins values, the source holds several entries; their conditions need not be identical. Equal entries are not always repeated. Marks after values point to notes of the source that are not given here.

Tests used:
[1] = system: rats; assay: Tail flick test after intrathecal implantation of PLGA rods; assay type: in vivo; conditions: for % MPE, tail flick test, Average: average of 6 rats
[2] = system: rats; assay: Paw withdrawal test after intrathecal implantation of PLGA rods; assay type: in vivo; conditions: for % MPE, paw withdrawal test, Average: average of 6 rats
[3] = Drug release studies of PLGA 85:15 rods (Example 2); assay type: physicochemical
[4] = system: rats; assay: Anesthesia after intrathecal polymeric implants, all sites tested (Example 2); assay type: in vivo; conditions: intrathecal rods
[5] = trapezoidal method, individual rats
[6] = trapezoidal method, mean of 6 rats

In the case of `C[C@@H](NC(=O)[C@@H](N)Cc1ccc(O)cc1)C(=O)NCC(=O)N[C@@H](Cc1ccccc1)C(=O)NNC(=O)[C@H](Cc1ccccc1)NC(=O)CNC(=O)[C@@H](C)NC(=O)[C@@H](N)Cc1ccc(O)cc1` [Biphalin], the “% MPE, tail flick test, Average” value ([1]; 2h) is reported as 86.67 % MPE, the “% MPE, tail flick test” value ([1]; 2h after intrathecal implantation of PLGA rod, individual rats) is reported as 80 % MPE and 96.46 % MPE and 86.99 % MPE and 84.66 % MPE and 76.49 % MPE and 95.43 % MPE and the “% MPE, tail flick test, Average” value ([1]; 4h) is reported as 91.63 % MPE. For the same compound, the “% MPE, tail flick test” value ([1]; 4h, individual rats) was 85.6 % MPE and 83.65 % MPE and 91.6 % MPE and 100 % MPE (2×) and 88.92 % MPE, the “Area under the curve (AUC), tail flick test” value ([1]; % MPE versus time in days, trapezoidal method, individual rats) was 280.84 and 263.66 and 251.97 and 276.26 and 343.10 and 236.51 and the “Area under the curve (AUC), tail flick test, Mean” value ([1]; % MPE versus time in days, trapezoidal method, mean of 6 rats) was 275.39 *. The “% MPE, tail flick test, Average” value ([1]; D1) was 82.2 % MPE, the “% MPE, tail flick test” value ([1]; D1, individual rats) was 84.8 % MPE and 71.9346 % MPE and 75.88 % MPE and 100 % MPE and 72.97 % MPE and 87.63 % MPE and the “% MPE, tail flick test, Average” value ([1]; D2) was 73.13 % MPE. For the same compound, the “% MPE, tail flick test” value ([1]; D2, individual rats) was 73.6 % MPE and 73.297 % MPE and 69.9187 % MPE and 90.48 % MPE and 55.14 % MPE and 76.34 % MPE, the “% MPE, tail flick test, Average” value ([1]; D3) was 46.93 % MPE and the “% MPE, tail flick test” value ([1]; D3, individual rats) was 32.53 % MPE and 35.15 % MPE and 36.59 % MPE and 73.54 % MPE and 50.27 % MPE and 53.49 % MPE. The “% MPE, tail flick test, Average” value ([1]; D4) was 24 % MPE, the “% MPE, tail flick test” value ([1]; D4, individual rats) was 22.67 % MPE and 20.16 % MPE and 31.17 % MPE and 33.33 % MPE and 21.08 % MPE and 15.5914 % MPE and the “% MPE, tail flick test, Average” value ([1]; D5) was 9.086 % MPE. The “% MPE, tail flick test” value ([1]; D5, individual rats) was 9.067 % MPE and 12.26 % MPE and 21.14 % MPE and 3.175 % MPE and 1.081 % MPE and 7.796 % MPE, the “% MPE, tail flick test, Average” value ([1]; D6) was 2.009 % MPE and the “% MPE, tail flick test” value ([1]; D6, individual rats) was 10.4 % MPE and 5.177 % MPE and 4.065 % MPE and 2.381 % MPE and −4.324 ^ % MPE and −5.645 ^ % MPE. The “% MPE, paw withdrawal test, Average” value ([2]; 2h, L) was 100 % MPE, the “% MPE, paw withdrawal test, Average” value ([2]; 2h, R) was 100 % MPE and the “% MPE, paw withdrawal test” value ([2]; 2h, left (L) hind paw, individual rats) was 100 % MPE. For the same compound, the “% MPE, paw withdrawal test” value ([2]; 2h, right (R) hind paw, individual rats) was 100 % MPE, the “% MPE, paw withdrawal test, Average” value ([2]; 4h, L) was 100 % MPE and the “% MPE, paw withdrawal test” value ([2]; 4h, L, individual rats) was 100 % MPE. The “% MPE, paw withdrawal test, Average” value ([2]; 4h, R) was 100 % MPE, the “% MPE, paw withdrawal test” value ([2]; 4h, R, individual rats) was 100 % MPE and the “% MPE, paw withdrawal test, Average” value ([2]; D1, L) was 14.47 % MPE. The “% MPE, paw withdrawal test” value ([2]; D1, L, individual rats) was 30.27 % MPE and 7.30 % MPE and −1.89 % MPE and 10.92 % MPE and 18.44 % MPE and 21.78 % MPE, the “% MPE, paw withdrawal test, Average” value ([2]; D1, R) was 16.56 % MPE and the “% MPE, paw withdrawal test” value ([2]; D1, R, individual rats) was 38.69 % MPE and 10.29 % MPE and −2.32 % MPE and 10.84 % MPE and 16.61 % MPE and 25.27 % MPE. For the same compound, the “% MPE, paw withdrawal test, Average” value ([2]; D2, L) was 8.34 % MPE, the “% MPE, paw withdrawal test” value ([2]; D2, L, individual rats) was 6.46 % MPE and 1.46 % MPE and −5.68 % MPE and 12.97 % MPE and 20.92 % MPE and 13.93 % MPE and the “% MPE, paw withdrawal test, Average” value ([2]; D2, R) was 6.03 % MPE. For the same compound, the “% MPE, paw withdrawal test” value ([2]; D2, R, individual rats) was 4.92 % MPE and 0.37 % MPE and −6.20 % MPE and 9.44 % MPE and 16.61 % MPE and 11.03 % MPE, the “% MPE, paw withdrawal test, Average” value ([2]; D3, L) was 7.52 % MPE and the “% MPE, paw withdrawal test” value ([2]; D3, L, individual rats) was −2.04 % MPE and 10.58 % MPE and 12.12 % MPE and 17.06 % MPE and 12.06 % MPE and −4.64 % MPE. For the same compound, the “% MPE, paw withdrawal test, Average” value ([2]; D3, R) was 8.40 % MPE, the “% MPE, paw withdrawal test” value ([2]; D3, R, individual rats) was 7.54 % MPE and 9.92 % MPE and 9.30 % MPE and 13.64 % MPE and 11.07 % MPE and −1.07 % MPE and the “% MPE, paw withdrawal test, Average” value ([2]; D4, L) was 1.86 % MPE. For the same compound, the “% MPE, paw withdrawal test” value ([2]; D4, L, individual rats) was 2.27 % MPE and 11.94 % MPE and 2.84 % MPE and 2.14 % MPE and 0.34 % MPE and −8.39 % MPE, the “% MPE, paw withdrawal test, Average” value ([2]; D4, R) was 1.02 % MPE and the “% MPE, paw withdrawal test” value ([2]; D4, R, individual rats) was −0.78 % MPE and 9.44 % MPE and 2.21 % MPE and −2.14 % MPE and 3.28 % MPE and −5.88 % MPE. The “% MPE, paw withdrawal test, Average” value ([2]; D5, L) was 3.36 % MPE, the “% MPE, paw withdrawal test” value ([2]; D5, L, individual rats) was 18.18 % MPE and 15.02 % MPE and 2.13 % MPE and −5 % MPE and 4.42 % MPE and −14.60 % MPE and the “% MPE, paw withdrawal test, Average” value ([2]; D5, R) was 4.72 % MPE. The “% MPE, paw withdrawal test” value ([2]; D5, R, individual rats) was 21.32 % MPE and 17.48 % MPE and 0.37 % MPE and −2.49 % MPE and 8.52 % MPE and −16.91 % MPE, the “% MPE, paw withdrawal test, Average” value ([2]; D6, L) was 0.45 % MPE and the “% MPE, paw withdrawal test” value ([2]; D6, L, individual rats) was 14.39 % MPE and 2.73 % MPE and −0.35 % MPE and −5.71 % MPE and −0.68 % MPE and −7.66 % MPE. The “% MPE, paw withdrawal test, Average” value ([2]; D6, R) was 0.00 % MPE, the “% MPE, paw withdrawal test” value ([2]; D6, R, individual rats) was 15.89 % MPE and 2.45 % MPE and −3.32 % MPE and −5.34 % MPE and 0.98 % MPE and −10.6 % MPE and the “Area under the curve (AUC), paw withdrawal test (left side)” value [2, 5] was 41.94 and 82.35 and 118.40 and 104.74 and 73.61 and 86.69. For the same compound, the “Area under the curve (AUC), paw withdrawal test (right side)” value [2, 5] was 41.65 and 79.45 and 111.20 and 93.88 and 75.91 and 110.34, the “Area under the curve (AUC), paw withdrawal test (left side), Mean” value [2, 6] was 84.62 * and the “Area under the curve (AUC), paw withdrawal test (right side), Mean” value [2, 6] was 85.40 *. For the same compound, the release order [3] was “two phases” and the duration of anesthesia/analgesia [4] was “about 3 days”.
